According to the METLIN SMRT retention time set (Domingo-Almenara et al. 2019):

Experiment: gradient 5% acetonitrile 3 min, to 50% in 2 min, to 85% in 15 min, held 3 min, 100 µL/min
Conditions: column: Zorbax Extend-C18 2.1 x 50 mm; eluents: water / acetonitrile, 0.1% formic acid
How it was run: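 A Zorbax Extend-C18 column (2.1 × 50 mm, 1.8 μm) run at 100 μL/min with water and acetonitrile, both containing 0.1% formic acid, separated mixtures of ~100 pure standards. The HPLC was coupled to a quadrupole time-of-flight mass spectrometer operated in positive and negative ionization mode, with dead and dwell volumes of 40 μL and 900 μL. Each retention time was taken from a computationally picked adduct peak that was then manually inspected.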

SMILES	RP-LC retention time [s]
OCCNCc1ccc(-c2cccc(Cl)c2)o1	987
CN(CC1CCOC1)C(=O)Nc1cccc(Br)c1 (centres undefined)	716
Cc1ccc(C(=O)COc2ccc(N3C(=O)C4CCC(C)CC4C3=O)cc2)cc1C (centres undefined)	1120
CCN(CC)C(=O)c1cnc2snc(C)c2c1N1CCC(C(=O)Nc2ccc(Br)c(C)c2)CC1	1080
CCCOc1ccc(-c2noc(Cc3nc(-c4cccc(OC)c4)cs3)n2)cc1	1360
Cc1ccc(C)c(S(=O)(=O)N2CCC(F)(c3nc(CC(C)C)no3)CC2)c1	1270
CC1CN=C2C(N3CCN(C(=O)c4ccc(C#N)cc4)CC3)=NC=CN21 (centres undefined)	678
COc1ccc(CCc2nc3nccc(-c4cccnc4)n3n2)cc1OC	666
CC1CCCN(CC2CCN(S(=O)(=O)Cc3cc(F)cc(F)c3)CC2)C1 (centres undefined)	666
CC(C)c1ccc(NC(=O)Cn2ncc3c(c2=O)N(CC2CC2)C(=O)CS3)cc1	934
O=C(CN1C(=O)COc2cc(Cl)ccc21)NC1CC1	714
COc1ccc(NS(=O)(=O)c2cn(CC(C)C)c3ncccc23)cc1Cl	950
CCN(CC)S(=O)(=O)c1ccc2c(c1)CC(C(=O)NC1CCCC1)N2C(C)=O (centres undefined)	855
CCN1CCN(C(=O)C2CCCN(c3nccc(C)n3)C2)CC1 (centres undefined)	559
O=C(CN1CCC(c2nnc(-c3ccc(F)cc3)o2)CC1)Nc1cccnc1	539
O=c1c2sccc2n(Cc2nc(-c3cccc(C(F)(F)F)c3)no2)c(=O)n1Cc1ccccc1	1190
CCCC(=O)Nc1ccc(-n2cnc(C(=O)N3CCN(c4cccc(C)c4C)CC3)c2)nc1	929
O=C(NC1CCCCCC1)C1CCN(S(=O)(=O)c2cc(-c3noc(C4CC4)n3)cs2)CC1	1040
O=S(=O)(CCCOc1ccc(F)cc1)NCC1CCCO1 (centres undefined)	763

SMILES	RP-LC retention time [s]
CCOC(=O)c1csc(NC(=O)CCS(=O)(=O)c2ccc(OC)cc2)n1	700
Cc1ccc(C)c(NC(=O)Cn2nc3c(Oc4ccc(C(C)C)cc4)nccn3c2=O)c1	1080
O=C(CSc1nc(-c2ccccc2)ns1)OCc1ccccc1	1160
CCCC(NC(=O)Cc1ccccc1F)C(=O)Nc1nc2ccccc2[nH]1 (centres undefined)	694
CC1(C)C(=O)Nc2ccc(S(=O)(=O)N3CCC(c4noc(-c5ccncc5)n4)C3)cc21 (centres undefined)	700
Cc1ccc(C(=O)Nc2ccc3c(c2)Sc2ncccc2C(=O)N3C(C)C)s1	886
Cc1cccc(C(=O)Nc2nc(-c3ccc4c(c3)NC(=O)C(C)O4)c(C)s2)c1 (centres undefined)	979
CCOC(=O)c1noc2ncnc(N(CC)c3ccccc3)c12	948
CCCN1CCCCc2cc(C(=O)NC(C)(C)C)sc21	1200
O=C(Cn1c(=O)c2cc(C3CC3)nn2c2ncccc21)Nc1cccc(Cl)c1	848
COc1ccc(-c2c(C(=O)O)nnn2-c2ccc3c(c2)OCO3)cc1	745
O=C(Cn1cnc2ccccc2c1=O)N[C@H](C(=O)O)c1ccccc1	642
COc1ccc(NC(=O)c2ccc3c(c2)OCCO3)c([N+](=O)[O-])c1	874
Cc1cc(NCC(=O)NC2CCCCC2)n2nc(-c3cccnc3)nc2n1	646
COc1ccc(CN2CCC3(CC2)CC(O)CCO3)cc1C (centres undefined)	606
Cc1cc(-c2nnc(C3CC3)o2)c(C)n1CC(=O)Nc1cccc(F)c1	825
Cc1cc(C)c(C)c(S(=O)(=O)N2CC(=O)N(CC3CC3)CC23CCCC3)c1C	1170
CCn1cc(-c2nc(C(=O)Nc3cccc(C)c3)cs2)c2cccnc21	1130
COc1ccccc1-n1ccnc(NC(=O)Nc2ccc(F)cc2F)c1=O	938

Further lines, results first:

RP-LC retention time [s]	SMILES
883	O=C(c1ccccc1F)N1CCc2nc(-c3ccccc3)ncc2C1
795	O=C(NCc1ccc(F)cc1F)c1ccc2c(c1)nc1n2CCN(Cc2ccccc2)C1=O
786	Cc1cc(S(=O)(=O)N2C[C@@H](F)C[C@H]2C(=O)N2CCCCC2)ccc1F
813	Cc1cc(N2CCOCC2)nc(N2CCN(S(=O)(=O)c3ccc4c(c3)Cc3ccccc3-4)CC2)n1
609	COc1ccc(NC(=O)c2cn3c(n2)CCCC3)cc1Cl
690	CCN1C(=O)Cc2ccccc2C1C(=O)NCc1ccco1 (centres undefined)
566	O=C(NCCN1CCOCC1)c1ccc(-c2ccc(N3CCCCCC3)nc2)cc1
568	COCCCNC(=O)C1CCN(c2cncnc2N(C)C)CC1
932	CCc1nn2c(CNS(=O)(=O)c3ccc(F)cc3)c(-c3ccccc3)nc2s1
723	CC(=O)c1ccc(N2CCN(C(=O)C3Oc4ccccc4NC3=O)CC2)cc1 (centres undefined)
1210	O=C(Nc1cccc(F)c1)C1CCCN(c2nc3ccccc3nc2C(F)(F)F)C1 (centres undefined)
748	CCOC(=O)c1ccc(NC(=O)CSc2cc(N3CCC(C(=O)NC4CC4)CC3)ncn2)cc1
1140	COc1nc2ccccc2nc1N1CCCC(C(=O)Nc2ccccc2F)C1 (centres undefined)
955	Cc1ccc(-n2c(N3CCCC(C(=O)NCCC(C)C)C3)nc3ccsc3c2=O)cc1 (centres undefined)
653	CN1CC(=O)N(CC(=O)Nc2cccc(C#N)c2)c2ccccc2C1=O
809	O=C(NCCc1csc(-c2cccs2)n1)C1CCN(C(=O)c2ccc(F)c(F)c2)CC1
875	N#Cc1cccc(C(=O)NC2(c3nc(-c4ccncc4)no3)CCCCC2)c1
1090	Cc1oc2ccn(Cc3ccccc3F)c(=O)c2c1C(=O)NCc1ccc(F)cc1
683	CCOc1ccc(Nc2c(C(=O)N3CCCCC3CC)cnc3nc(C)ccc23)cc1 (centres undefined)
852	CCCSCCCNC(=O)c1cc2n(n1)CCCN(Cc1ccc(C)cc1)C2=O
645	CN1C(=O)c2ccccc2Sc2ccc(NC(=O)N3CCN(c4ccccn4)CC3)cc21
620	COCCN1C(=O)[C@H]2CN(Cc3ccc(OC)c(OC)c3Cl)C[C@H]2C1=O
770	O=C1CCCc2cc(S(=O)(=O)N3CCC(C(=O)Nc4cccc(F)c4)CC3)ccc2N1
873	Cc1nc(-c2ccc(N3CCN(C(=O)c4ccccc4F)CC3)nc2)sc1C
919	Cc1cc(NC(=O)NC2CCN(c3ccccc3)C2=O)ccc1Br (centres undefined)
712	COc1ccc(OCc2noc(CNC(=O)CCC(=O)c3ccccc3)n2)cc1

RP-LC retention time [s]	SMILES
846	CCS(=O)(=O)N1CC(=O)N(c2ccc(C)c(C)c2)C(C)(C(=O)NCc2ccc(F)cc2)C1 (centres undefined)
802	COc1ccccc1OCC(=O)Nc1cc(-c2ccccn2)no1
901	Cc1noc(/C=C/c2ccc(S(=O)(=O)N3CCCCC3)s2)c1NC(=O)C1CC1
1080	Cc1ccccc1-c1noc(C2CCCN2C(=O)Nc2cc(F)ccc2F)n1 (centres undefined)
855	Cc1ccc(Cn2c(=O)n(CCNC(=O)CC(C)(C)C)c3ncccc32)cc1
709	COc1ccc(S(=O)(=O)N2CCCC(C(=O)NCCCO)C2)cc1C (centres undefined)
784	COc1ccccc1CNS(=O)(=O)c1cc2n(c1)CCN(C(C)C)C2=O
826	COc1ccc(OC)c(CNC(=O)c2nnc(-c3ccc(S(=O)(=O)N4CCOCC4)cc3)o2)c1
563	COc1ccc(NC(=O)N2CCC(n3c(C)nc4cccnc43)CC2)cc1OC
798	CCOc1ccc(S(=O)(=O)N2CC(F)(F)C[C@H]2CN2CCc3ccccc3C2)cc1
959	CCN(CC)S(=O)(=O)c1ccc2c(c1)N(CC(=O)NCc1ccc(C)o1)C(=O)C1CCCCN21 (centres undefined)
720	COCCC(=O)N1CCCN(C2=NS(=O)(=O)C(c3ccc(C)cc3)=C2C)CC1
584	CCNC(=O)Nc1ccc(OCC(=O)NC2CCN(Cc3ccccc3)CC2)nc1
926	COc1ccc(C2Cn3nnc(C(=O)NCc4cc(OC)ccc4OC)c3CO2)cc1 (centres undefined)
614	CCOc1ccc(NC(=O)c2cn3c(n2)CCCC3)cc1
901	CC1CCN(C(=O)CN2C(=O)CCCc3cc(S(=O)(=O)N4CCCCC4)ccc32)CC1
1030	CC(C)Cn1c(=O)c2cc(C(=O)NCc3cc(F)ccc3F)nn2c2ccccc21
612	O=C(Cn1c(=O)c2cccn2c2ccccc21)NCCCN1CCCCCC1
814	CCC1CN2C=NC(N3CCN(C(=O)Nc4ccccc4Cl)CC3)=CC2=N1 (centres undefined)
612	COCCN1C(=O)c2ccccc2C(C(=O)NCCCN2CCCCC2)C1c1cccs1 (centres undefined)
973	CCOc1ccc2c(n1)CCN(C(=O)Nc1ccccc1OCC)C2
651	COc1ccc(Cl)c2c(=O)c3c([nH]c12)CCN(CC(=O)Nc1cccc(Cl)c1C)C3
702	COc1cc(C(=O)N(Cc2cccs2)C2CCS(=O)(=O)C2)cc(OC)c1OC (centres undefined)
572	O=C(NCC(c1ccsc1)N1CCc2ccccc2C1)C(=O)Nc1ccon1 (centres undefined)
943	O=C(NCc1ccccc1F)C1CCCN(c2nc3ccsc3c(=O)n2Cc2ccccc2)C1 (centres undefined)
